Data reported in US20230270855A1, “Genetically Modified T-Cells and PI3K/AKT Inhibitors For Cancer Treatment” (The Research Foundation for The State of University New York, priority 2018, published 2023).

Key:
[1] = tested on: WT KPC pancreatic tumors; assay: Adoptive transfer of PI3K mutant-expressing T-cells plus BYL719 in tumor-bearing mice; assay type: in vivo; conditions: WT mice implanted with WT KPC cells
Procedure: To test the anti-tumor efficacy of CTLKPC clones that express one or more PI3K p110α mutants, one or more PI3K p110δ mutants or combinations of PI3K p110α and p110δ mutants, respectively, in vivo, WT mice are implanted with 0.5 million WT KPC cells in the pancreas. After 2 weeks, the pancreatic tumors are well established and are quantified by IVIS imaging. […] Changes in tumor size are monitored by IVIS imaging and survival curves are constructed. Post-mortem examination is performed as described above for analyzing the pancreas. Tumor regression is observed only in the groups that receive adoptive transfer of PI3K mutant-expressing T-cells, plus concurrent treatment with the appropriate PI3K inhibitor.

[2] = molecular target: Akt2W80A (Homo sapiens, UniProt P31751, W80A); conditions: previous studies; cited from earlier work
Akt2W80A, sequence (P31751 whole entry W80A): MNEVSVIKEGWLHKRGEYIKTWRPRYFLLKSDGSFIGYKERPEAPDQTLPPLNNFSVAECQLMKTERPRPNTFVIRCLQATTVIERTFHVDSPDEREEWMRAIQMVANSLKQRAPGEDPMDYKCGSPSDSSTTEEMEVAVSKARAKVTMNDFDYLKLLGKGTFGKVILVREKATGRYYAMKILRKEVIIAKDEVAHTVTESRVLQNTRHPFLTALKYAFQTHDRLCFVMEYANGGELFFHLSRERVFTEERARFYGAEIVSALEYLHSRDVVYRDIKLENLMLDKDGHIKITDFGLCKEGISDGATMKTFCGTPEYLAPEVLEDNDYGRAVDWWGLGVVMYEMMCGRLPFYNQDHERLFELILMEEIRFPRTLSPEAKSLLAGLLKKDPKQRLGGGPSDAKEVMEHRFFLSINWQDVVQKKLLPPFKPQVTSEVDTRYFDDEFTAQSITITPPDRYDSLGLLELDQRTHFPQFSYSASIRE

[3] = molecular target: Akt1W80A (Homo sapiens, UniProt P31749, W80A); conditions: previous studies; cited from earlier work
Akt1W80A, sequence (P31749 whole entry W80A): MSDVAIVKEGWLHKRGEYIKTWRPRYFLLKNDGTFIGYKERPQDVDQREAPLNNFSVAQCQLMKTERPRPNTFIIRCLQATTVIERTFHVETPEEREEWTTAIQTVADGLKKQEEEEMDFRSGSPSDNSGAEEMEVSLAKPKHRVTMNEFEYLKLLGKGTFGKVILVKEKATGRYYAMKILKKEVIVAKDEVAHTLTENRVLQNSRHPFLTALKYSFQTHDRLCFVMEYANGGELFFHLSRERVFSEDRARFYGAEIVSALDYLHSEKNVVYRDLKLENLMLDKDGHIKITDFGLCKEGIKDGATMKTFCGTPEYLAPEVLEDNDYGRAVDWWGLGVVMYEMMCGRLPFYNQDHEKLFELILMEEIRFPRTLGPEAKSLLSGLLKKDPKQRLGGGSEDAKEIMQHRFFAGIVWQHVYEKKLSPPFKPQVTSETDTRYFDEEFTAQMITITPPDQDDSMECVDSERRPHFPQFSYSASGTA

Row | Structure (SMILES) | survival [1] | inhibition of Akt2W80A mutant [2] | inhibition of Akt1W80A mutant [3]
1 | Cc1nc(NC(=O)N2CCC[C@H]2C(N)=O)sc1-c1ccnc(C(C)(C)C(F)(F)F)c1 [BYL719] | all die from pancreatic tumor progression | – | –
2 | NC1(c2ccc(-c3nc4ccn5c(=O)[nH]nc5c4cc3-c3ccccc3)cc2)CCC1 [MK2206] | – | completely resistant | completely resistant
